This note sets out measurements from US10730857B2, “Benzocyanine compounds” (Pierce Biotechnology, Inc., priority 2011, dated 2020).

The nature of data set [1]: Absorbance/emission spectral properties and fluorescence intensity of the dyes. The class given is physicochemical. The procedure:
Emission/excitation profiles for inventive and commercial compounds was determined by reconstituting the compounds in DMF at 10 mg/ml and then diluting in PBS buffer pH 7.2 to 10 μg/ml.

The test system of the next data set is lamin A in U20S cells. Nature of the data set: Immunofluorescence, mouse anti-lamin A, U20S cells (FIG. 16). Format: cell-based. As to conditions: FIG. 16. The procedure: The inventive compounds and commercial dye were evaluated for immunofluorescence in a second cell based assay using the following protocol. Frozen U20S cell plates stored at −20° C. were placed overnight at 4° C. Storage buffer (PBS) was removed and the cells were permeabilized for 15 min (100 μl/well) with 0.1% Triton-X100 in 1×PBS buffer. Plates were blocked for 30 min in 2% BSA in 1×PBS-0.1% Trion-X100. Primary antibodies diluted in 2% BSA in 1×PBS-0.1% Trion-X100 were added to the plates (column 1-11; column 12 included only blocker) and incubated five hours at room temperature. Mouse anti-lamin A was added at 2 μg/ml and rabbit anti-lamin B1 was added at 4 μg/ml. After incubation, the antibody solution was removed from the plates and the plates were washed PBS-0.5% Tween-20 (2×100 μl/well). Next, GAM and GAR secondary antibodies labeled with DyLight 680-NHS, DyLight 680B-NHS, 679 Compound 1-NHS, and Cy5.5 Mono Ester were diluted to 4 μg/ml in PBS and incubated with the cells for one hour at room temperature. GAM and GAR conjugated to DyLight 680-NHS, DyLight 680B-NHS, 679 Compound 1-NHS, and Company B Compound at 10× molar excess were diluted to 4 μg/ml in PBS and then serially diluted 1:1 in the plate to the following concentrations: 2 μg/ml, 1 μg/ml, 0.5 μg/ml, 0.25 μg/ml, 0.125 μg/ml and/or 0.0625 μg/ml. The plates were washed 3× with 100 μl/well PBS, and Hoechst stain diluted to 0.1 μg/ml in PBS was added to each well (100 μl/well). The plates were scanned on ArrayScan Plate Reader for imaging and quantitation.

Setting [2] is: first property table of Example 6, NHS/mono ester forms.
Where [3] appears, read: second property table of Example 6, NHS ester forms.

As to “2-{(1E,3E)-5-[3-(5-Carboxypentyl)-1,1-dimethyl-6,8-disulfo-1,3-dihydro-benzo[e]indol-(2E)-ylidene]-penta-1,3-dienyl}-3-(2-methoxy-ethyl)-1-methyl-6,8-disulfo-1-(3-sulfopropyl)-1H-benzo[e]indolium [679 Compound 1/1 (isomer 2)]”, in data set [1] (PBS), the “UV-vis λmax” value came to 679 nm and the λem worked out at 698 nm.
Regarding `COCC[N+]1=C(/C=C/C=C/C=C2/N(CCCCCC(=O)O)c3ccc4c(S(=O)(=O)[O-])cc(S(=O)(=O)[O-])cc4c3C2(C)C)C(C)(CCCS(=O)(=O)[O-])c2c1ccc1c(S(=O)(=O)[O-])cc(S(=O)(=O)[O-])cc21.[Na+].[Na+].[Na+].[Na+]` (single isomer, unassigned; isomer 1) [679 Compound 1/1 (isomer 1), 2-{(1E,3E)-5-[3-(5-Carboxypentyl)-1,1-dimethyl-6,8-disulfo-1,3-dihydro-benzo[e]indol-(2E)-ylidene]-penta-1,3-dienyl}-3-(2-methoxy-ethyl)-1-methyl-6,8-disulfo-1-(3-sulfopropyl)-1H-benzo[e]indolium], the “UV-vis λmax” value in data set [1] (PBS) worked out at 679 nm.
In data set [1] (setting [2]), `COCC[N+]1=C(/C=C/C=C/C=C2/N(CCCCCC(=O)ON3C(=O)CCC3=O)c3ccc4c(S(=O)(=O)[O-])cc(S(=O)(=O)O)cc4c3C2(C)C)C(C)(CCCS(=O)(=O)O)c2c1ccc1c(S(=O)(=O)O)cc(S(=O)(=O)O)cc21` (stereo not shown) [679 Compound 1-NHS] registered an Em of 698 nm and an Ex of 679 nm. In data set [1] (setting [3]), this molecule displayed an Em of 698 nm and an Ex of 679 nm.
For Cy5.5 [reference compound], the “Mean Total Intensity 2X” value with lamin A in U20S cells (GAM conjugated at 2X molar excess) is given as 211945. The “Mean Total Intensity 3X” value in the data set with lamin A in U20S cells (GAM conjugated at 3X molar excess) is listed as 342208. Further, the “Mean Total Intensity 4X” value in the data set on lamin A in U20S cells (GAM conjugated at 4X molar excess) worked out at 451111.
